Assay results reported in US9174995B2, “Pyrrolotriazinone derivatives” (Merck Patent GmbH, priority 2012, dated 2015).

Target: T1, GST-tagged Tankyrase-1 (1023-1327 aa) (Homo sapiens, UniProt O95271)
T1 construct: GST-tagged Tankyrase-1 (1023-1327 aa)
Assay: Tankyrase 1 autoparsylation assay (HTRF enzyme assay)
Type: biochemical
Experimental: Biochemical Activity Testing of Tankyrase 1 and 2: Autoparsylation Assay
The autoparsylation assay is run in two steps: the enzymatic reaction in which GST-tagged Tankyrase-1, resp Tankyrase-2 transferred biotinylated ADP-ribose to itself from biotinylated NAD as co-substrate and the detection reaction where a time resolved FRET between cryptate labelled anti-GST bound to the GST tag of the enzyme and Xlent® labelled-streptavidin bound the biotin-parsylation residue is analysed. The autoparsylation activity was detectable directly via the increase in HTRF signal.
The autoparsylation assay is performed as 384-well HTRF® (Cisbio, Codolet, France) assay format in Greiner low volume nb 384-well microtiter plates and is used for high throughput screen. 250 nM GST-tagged Tankyrase-1 (1023-1327 aa), respectively about 250 nM GST-tagged Tankyrase-2 (873-1166 aa) and 5 μM bio-NAD (Biolog, Life science Inst., Bremen, Germany) as co-substrate are incubated in a total volume of 5 μl (50 mM HEPES, 4 mM Mg-chloride, 0.05% Pluronic F-68, 1.4 mM DTT, 0.5% DMSO, pH 7.7) in the absence or presence of the test compound (10 dilution concentrations) for 90 min at 30° C. The reaction is stopped by the addition of 1 μl 50 mM EDTA solution. 2 μl of the detection solution (1.6 μM SA-Xlent® (Cisbio, Codolet, France), 7.4 nM Anti-GST-K® (Eu-labelled anti-GST, Cisbio, Codolet, France) in 50 mM HEPES, 800 mM KF, 0.1% BSA, 20 mM EDTA, 0.1% CHAPS, pH 7.0) are added. After 1 h incubation at room temperature the HTRF is measured with an Envision multimode reader (Perkin Elmer LAS Germany GmbH) at excitation wavelength 340 nm (laser mode) and emission wavelengths 615 nm and 665 nm. The ratio of the emission signals is determined. The full value used is the inhibitor-free reaction. The pharmacological zero value used is XAV-939 (Tocris) in a final concentration of 5 μM. The inhibitory values (IC50) are determined using either the program Symyx Assay Explorer® or Condosseo® from GeneData.

T1 sequence (O95271 1023-1327): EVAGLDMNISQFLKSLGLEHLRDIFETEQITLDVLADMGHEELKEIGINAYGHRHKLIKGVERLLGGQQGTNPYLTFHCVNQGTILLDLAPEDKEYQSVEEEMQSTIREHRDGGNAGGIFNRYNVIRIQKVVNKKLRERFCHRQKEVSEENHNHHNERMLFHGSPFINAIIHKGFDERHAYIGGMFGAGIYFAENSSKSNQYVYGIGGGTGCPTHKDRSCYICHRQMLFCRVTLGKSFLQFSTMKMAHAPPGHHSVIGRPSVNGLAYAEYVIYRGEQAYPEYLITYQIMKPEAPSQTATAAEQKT

SMILES | IC50 [nM]
CCC(O)(CC)c1ccc(-c2nn3cccc3c(=O)[nH]2)cc1 [Compound A14, 2-[4-(1-ethyl-1-hydroxy-propyl)-phenyl]-3H-pyrrolo[2,1-f][1,2,4]triazin-4-one] | < 300
O=c1[nH]c(-c2ccc(C3(O)CCCC3)cc2)nn2cccc12 [Compound A21, 2-[4-(1-hydroxy-cyclopentyl)-phenyl]-3H-pyrrolo[2,1-f][1,2,4]-triazin-4-one] | < 300
Cc1cc2c(=O)[nH]c(-c3ccc(C(C)(C)O)cc3)nn2c1 [Compound A11, 2-[4-(1-hydroxy-1-methyl-ethyl)phenyl]-6-methyl-3H-pyrrolo[2,1-f][1,2,4]triazin-4-one] | < 300
CC(C)(O)c1ccc(-c2nn3cc(F)cc3c(=O)[nH]2)cc1 [Compound A12, 6-fluoro-2-[4-(1-hydroxy-1-methyl-ethyl)phenyl]-3H-pyrrolo[2,1-f][1,2,4]triazin-4-one] | < 300
Cn1cc(-c2ccc(-c3nn4cccc4c(=O)[nH]3)cc2)cn1 [Compound A7, 2-[4-(1-methyl-1H-pyrazol-4-yl)-phenyl]-3H-pyrrolo[2,1-f][1,2,4]triazin-4-one] | < 300
CC(C)(O)c1ccc(-c2nn3cccc3c(=O)[nH]2)cc1 [Compound A5, 2-[4-(1-hydroxy-1-methyl-ethyl)-phenyl]-3H-pyrrolo[2,1-f][1,2,4]triazin-4-one] | < 300
Cc1cc2c(=O)[nH]c(-c3ccc(-c4cnn(C)c4)cc3)nn2c1 [Compound A13, 6-methyl-2-[4-(1-methylpyrazol-4-yl)phenyl]-3H-pyrrolo-[2,1-f][1,2,4]triazin-4-one] | < 300
CC(C)(O)c1ccc(-c2nn3cc(Cl)cc3c(=O)[nH]2)cc1 [Compound A18, 6-chloro-2-[4-(1-hydroxy-1-methyl-ethyl)-phenyl]-3H-pyrrolo[2,1-f][1,2,4]triazin-4-one] | < 300
CC(C)(OCCO)c1ccc(-c2nn3cccc3c(=O)[nH]2)cc1 [Compound A15, 2-{4-[1-(2-hydroxy-ethoxy)-1-methyl-ethyl]-phenyl}-3H-pyrrolo[2,1-f][1,2,4]triazin-4-one] | < 300
